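Dose response: 5 concentrations. Exposure: 48 h. Format: 96-well plates. Endpoint: linear interpolation; highest concentration if not reached. At the TGI there is no net growth.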
Experiments:
Test in all cases: growth of human tumour cells (NCI), 48 h
[1] = tested on: LOX IMVI melanoma
[2] = tested on: UO-31 renal
[3] = tested on: OVCAR-3 ovarian
[4] = tested on: UACC-257 melanoma
[5] = tested on: CCRF-CEM leukemia
[6] = tested on: COLO 205 colon
[7] = tested on: HCT-116 colon
[8] = tested on: A549 NSCLC
[9] = tested on: SF-295 CNS
[10] = tested on: EKVX NSCLC
[11] = tested on: OVCAR-5 ovarian
[12] = tested on: BT-549 breast
[13] = tested on: SF-268 CNS
[14] = tested on: RXF 393 renal
[15] = tested on: HT29 colon
[16] = tested on: MOLT-4 leukemia
[17] = tested on: HOP-92 NSCLC
[18] = tested on: TK-10 renal
[19] = tested on: ACHN renal
[20] = tested on: SNB-75 CNS
[21] = tested on: OVCAR-8 ovarian
[22] = tested on: NCI-H460 lung
[23] = tested on: UACC-62 melanoma
[24] = tested on: PC-3 prostate
[25] = tested on: U251 CNS
[26] = tested on: KM12 colon
[27] = tested on: MDA-MB-231 breast
[28] = tested on: SW-620 colon
[29] = tested on: NCI-H226 lung
[30] = tested on: OVCAR-4 ovarian
[31] = tested on: 786-0 renal
[32] = tested on: SK-MEL-5 melanoma
[33] = tested on: NCI-H23 lung
[34] = tested on: DU-145 prostate
[35] = tested on: SNB-19 CNS
[36] = tested on: SK-OV-3 ovarian
[37] = tested on: M14 melanoma
[38] = tested on: IGROV1 ovarian
[39] = tested on: MDA-N
[40] = tested on: HCT-15 colon
[41] = tested on: NCI-H522 lung
[42] = tested on: SF-539 CNS
[43] = tested on: SK-MEL-28 melanoma
[44] = tested on: SK-MEL-2 melanoma
[45] = tested on: T-47D breast
[46] = tested on: MDA-MB-435
[47] = tested on: NCI/ADR-RES ovarian
[48] = tested on: A498 renal
[49] = tested on: SR leukemia
[50] = tested on: HS 578T breast
[51] = tested on: RPMI-8226 leukemia
[52] = tested on: HL-60(TB) leukemia
[53] = tested on: CAKI-1 renal
[54] = tested on: MCF7 breast
[55] = tested on: SN12C renal
[56] = tested on: HOP-62 NSCLC
[57] = tested on: K-562 leukemia
[58] = tested on: HCC-2998 colon
[59] = tested on: MALME-3M melanoma

In the case of CC(=O)O[C@@H]1[C@@H](C)[C@]2(CC(c3ccoc3)OC2O)C2CCC3O[C@]3(C)[C@]2(C)[C@@H]1OC(C)=O (stereo not given in full), the TGI [1] is reported as 44.1 µM, the TGI [2] is reported as > 100 µM and the TGI [3] is reported as > 100 µM. The TGI [4] was > 100 µM, the TGI [5] was 61.5 µM and the TGI [6] was 40 µM. For the same molecule, the TGI [7] was > 100 µM, the TGI [8] was > 100 µM and the TGI [9] was > 100 µM. The TGI [10] was > 100 µM, the TGI [11] was > 100 µM and the TGI [12] was 63.1 µM. For the same molecule, the TGI [13] was > 100 µM, the TGI [14] was > 100 µM and the TGI [15] was > 100 µM. The TGI [16] was 64.9 µM, the TGI [17] was > 100 µM and the TGI [18] was > 100 µM. The TGI [19] was > 100 µM, the TGI [20] was > 100 µM and the TGI [21] was > 100 µM. The TGI [22] was > 100 µM, the TGI [23] was > 100 µM and the TGI [24] was > 100 µM. For the same molecule, the TGI [25] was > 100 µM, the TGI [26] was 86.8 µM and the TGI [27] was > 100 µM. The TGI [28] was > 100 µM, the TGI [29] was 87.9 µM and the TGI [30] was > 100 µM. For the same molecule, the TGI [31] was 39.9 µM, the TGI [32] was 64.3 µM and the TGI [33] was > 100 µM. For the same molecule, the TGI [34] was > 100 µM, the TGI [35] was > 100 µM and the TGI [36] was > 100 µM. The TGI [37] was > 100 µM, the TGI [38] was > 100 µM and the TGI [39] was > 100 µM. For the same molecule, the TGI [40] was > 100 µM, the TGI [41] was 69.7 µM and the TGI [42] was 65.3 µM. The TGI [43] was 81.4 µM, the TGI [44] was > 100 µM and the TGI [45] was 86.8 µM. The TGI [46] was > 100 µM, the TGI [47] was > 100 µM and the TGI [48] was > 100 µM. The TGI [49] was 58 µM, the TGI [50] was > 100 µM and the TGI [51] was 60.7 µM. For the same molecule, the TGI [52] was 48.7 µM, the TGI [53] was > 100 µM and the TGI [54] was > 100 µM. For the same molecule, the TGI [55] was > 100 µM.

For CC(=O)N1N=C(c2ccc3ccccc3c2O)CC1c1ccc(Cl)cc1Cl (stereo not given), the TGI [2] was > 100 µM, the TGI [3] was > 100 µM and the TGI [4] was > 100 µM. For the same molecule, the TGI [5] was > 100 µM, the TGI [6] was > 100 µM and the TGI [7] was > 100 µM. For the same molecule, the TGI [8] was > 100 µM, the TGI [9] was > 100 µM and the TGI [11] was > 100 µM. The TGI [12] was > 100 µM, the TGI [13] was 93.1 µM and the TGI [14] was > 100 µM. For the same molecule, the TGI [15] was > 100 µM, the TGI [16] was > 100 µM and the TGI [17] was > 100 µM. For the same molecule, the TGI [18] was > 100 µM, the TGI [19] was > 100 µM and the TGI [20] was > 100 µM. The TGI [21] was > 100 µM, the TGI [22] was > 100 µM and the TGI [23] was > 100 µM. For the same molecule, the TGI [24] was > 100 µM, the TGI [25] was > 100 µM and the TGI [26] was > 100 µM. For the same molecule, the TGI [27] was > 100 µM, the TGI [28] was > 100 µM and the TGI [29] was > 100 µM. For the same molecule, the TGI [30] was > 100 µM, the TGI [31] was > 100 µM and the TGI [56] was > 100 µM. The TGI [32] was > 100 µM, the TGI [33] was > 100 µM and the TGI [34] was > 100 µM. The TGI [57] was > 100 µM, the TGI [36] was > 100 µM and the TGI [37] was > 100 µM. The TGI [38] was > 100 µM, the TGI [39] was > 100 µM and the TGI [40] was > 100 µM. The TGI [41] was > 100 µM, the TGI [42] was 50.6 µM and the TGI [43] was > 100 µM. For the same molecule, the TGI [44] was > 100 µM, the TGI [45] was > 100 µM and the TGI [46] was > 100 µM. The TGI [47] was > 100 µM, the TGI [48] was > 100 µM and the TGI [49] was > 100 µM. For the same molecule, the TGI [50] was > 100 µM, the TGI [51] was > 100 µM and the TGI [58] was > 100 µM. The TGI [59] was > 100 µM, the TGI [53] was > 100 µM and the TGI [54] was > 100 µM. For the same molecule, the TGI [55] was > 100 µM.
